Test results published in publication PMC7046201, “Unexpected differences in the pharmacokinetics of N-acetyl-DL-leucine enantiomers after oral dosing and their clinical relevance” (PLoS ONE, 2020).
Several values for one entry are separate records, joined by “and”; a condition that tells them apart may be missing. Identical values can stand only once.

How the values were obtained:
[1] = Plasma pharmacokinetics of N-acetyl-leucine enantiomers after oral dosing of mice
Protocol: The animals were weighed on the day prior to dosing. The compound was administered to male BALB/c mice (n = 3 per time point) p.o. (100 mg/kg; 10 mL/kg) by oral gavage. Blood samples were collected into potassium EDTA tubes by venepuncture from the saphenous vein. Within 30 min following the sampling, blood was centrifuged for plasma separation (room temperature; 10 min; 2700 xg). The plasma samples were transferred into plastic tubes, frozen and stored at –20°C.
The plasma samples were prepared for analysis by mixing 50 μL of plasma with 100 μL of acetonitrile and mixed. In addition to plasma, skeletal muscle and brain tissue was also taken at less frequent time points (0.5, 2, 6, 24 and 48 h) and prepared for analysis by homogenization of 50 mg of tissue with 100 μL of acetonitrile. The samples were transferred to Waters 96-well plate and the sample was evaporated under nitrogen gas flow. The sample was reconstituted into 150 μl of 50% methanol:water and analysed by LC/MS. Standard plasma samples were prepared by spiking the injection solution with concentrations from 1 to 10 000 ng/mL by using one volume of spiking solution and nine volumes of injection solution. These samples were then prepared for analysis in the same way as the samples. […] QC samples from racemic-N-Acetyl-Leucine were prepared into concentrations of 40, 400 and 4000 ng/mL, corresponding to […] concentration of both D- and L-enantiomers, respectively. […] QC samples were then prepared for analysis in the same way as the samples.
Quantification by HPLC was performed using a Supelco Astec CHIROBIOTIC T chiral HPLC column (2.1 x 150 mm, 5 μm particle size) with a Waters Acquity UPLC + Thermo Q-Exactive hybrid Orbitrap MS, using ESI negative polarity, nitrogen auxiliary gas (450°C), capillary voltage was […] and controlled with the software Xcalibur 4.1. Samples were injected as a 4-μL volume and eluted with a gradient of buffer A (20 mM ammonium acetate) and buffer B (methanol) with a flow rate of 0.3 mL/min and column oven temperature of 30°C. The gradient was 80% A at 0 min; 20% A at 3.5 min and 80% A at 4.5 min Parallel Reaction Monitoring (PRM) and Full-MS-dd-MS2 were measured at the same time. […] Ions with aforementioned m/z was then collided and leucine fragment (m/z 130 or 134) was used in quantitation. In full-MS-dd-MS2 mode, every ion with intensity over a certain intensity was collided and fragments analyzed.
Plasma pharmacokinetic parameters of the N-acetyl-leucine enantiomers were calculated using Phoenix 64 (Build 6.4.0.768) WinNonlin (version 6.4) software, using non-compartmental method with sparse sampling. Nominal doses were used for all animals. The terminal phase half-life (T1/2), the time for 50% of the plasma concentration to decrease after some point of elimination, was calculated by least-squares regression analysis of the terminal linear part of the log concentration–time curve using the relationship 0.693/ke. The area under the plasma concentration–time curve (AUC), an estimation of plasma drug exposure over time, was determined with the linear trapezoidal rule for increasing values and log trapezoidal rule for decreasing values up to the last measurable concentration (AUC0-last). The first order elimination rate constant ke was calculated as the slope (minimum 3 points) from the terminal log plasma concentration time curve. The maximum concentration (Cmax) and the time taken to achieve the peak concentration (Tmax) after oral dose were obtained directly from the plasma concentration data without interpolation. The theoretical background and interpretation of the pharmacokinetic data was based on. Where appropriate, data are expressed as the mean ± standard error of the mean. Means were statistically analysed by either pre-planned t tests or a one-sample t test comparing the measured value with the expected value.

[2] = Skeletal muscle concentration of enantiomers after oral dosing of mice; format: in vivo, male BALB/c mice; details: individual mice
Protocol: (§1) In addition to plasma, skeletal muscle and brain tissue was also taken at less frequent time points (0.5, 2, 6, 24 and 48 h) and prepared for analysis by homogenization of 50 mg of tissue with 100 μL of acetonitrile. The samples were transferred to Waters 96-well plate and the sample was evaporated under nitrogen gas flow. The sample was reconstituted into 150 μl of 50% methanol:water and analysed by LC/MS. […] These samples were then prepared for analysis in the same way as the samples. […] QC samples from racemic-N-Acetyl-Leucine were prepared into concentrations of 40, 400 and 4000 ng/mL, corresponding to 20, 200 and 200 ng/mL concentration of both D- and L-enantiomers, respectively. […] QC samples were then prepared for analysis in the same way as the samples.
(§2) Quantification by HPLC was performed using a Supelco Astec CHIROBIOTIC T chiral HPLC column (2.1 x 150 mm, 5 μm particle size) with a Waters Acquity UPLC + Thermo Q-Exactive hybrid Orbitrap MS, using ESI negative polarity, nitrogen auxiliary gas (450°C), capillary voltage was 2000 and 350°C and controlled with the software Xcalibur 4.1. Samples were injected as a 4-μL volume and eluted with a gradient of buffer A (20 mM ammonium acetate) and buffer B (methanol) with a flow rate of 0.3 mL/min and column oven temperature of 30°C. The gradient was 80% A at 0 min; 20% A at 3.5 min and 80% A at 4.5 min Parallel Reaction Monitoring (PRM) and Full-MS-dd-MS2 were measured at the same time. […] Ions with aforementioned m/z was then collided and leucine fragment (m/z 130 or 134) was used in quantitation. In full-MS-dd-MS2 mode, every ion with intensity over a certain intensity was collided and fragments analyzed.

[3] = Brain concentration of enantiomers after oral dosing of mice; format: in vivo, male BALB/c mice
Protocol: as §1, §2

[4] = design: method as in Neuzil et al. 2002; details: humans, oral absorption; ref Neuzil et al. 2002; cited from earlier work
[5] = 0.15 h after p.o. N-Acetyl-L-Leucine 100 mg/kg, individual mice
[6] = 0.30 h after p.o. N-Acetyl-L-Leucine 100 mg/kg, individual mice
[7] = 1.00 h after p.o. N-Acetyl-L-Leucine 100 mg/kg, individual mice
[8] = 2.00 h after p.o. N-Acetyl-L-Leucine 100 mg/kg, individual mice
[9] = 4.00 h after p.o. N-Acetyl-L-Leucine 100 mg/kg, individual mice
[10] = 6.00 h after p.o. N-Acetyl-L-Leucine 100 mg/kg, individual mice
[11] = 8.00 h after p.o. N-Acetyl-L-Leucine 100 mg/kg, individual mice
[12] = 24.0 h after p.o. N-Acetyl-L-Leucine 100 mg/kg, individual mice
[13] = 32.0 h after p.o. N-Acetyl-L-Leucine 100 mg/kg, individual mice
[14] = 48.0 h after p.o. N-Acetyl-L-Leucine 100 mg/kg, individual mice
[15] = male, BALB/c, mouse, in vivo, po, 100 mg/kg
[16] = male, BALB/c, mouse, plasma, oral, 100 mg/kg, concentration in plasma, 0.30 h after p.o. N-Acetyl-L-Leucine 100 mg/kg, individual mice
[17] = male, BALB/c, mouse, plasma, oral, 100 mg/kg, concentration in plasma, 6.00 h after p.o. N-Acetyl-L-Leucine 100 mg/kg, individual mice
[18] = male, BALB/c, mouse, plasma, po, 100 mg/kg
[19] = plasma, after oral N-Acetyl-L-Leucine, nominal dose 100 mg/kg
[20] = plasma, after oral N-Acetyl-L-Leucine, nominal dose 100 mg/kg, 100 mg/kg
[21] = plasma, after oral N-Acetyl-L-Leucine, nominal dose 100 mg/kg, listed as D-enantiomer, 100 mg/kg
[22] = 0.30 h after p.o. N-Acetyl-DL-Leucine 100 mg/kg
[23] = 2.00 h after p.o. N-Acetyl-DL-Leucine 100 mg/kg
[24] = male, BALB/c, mouse, skeletal muscle, oral, 100 mg/kg, 0.30 h after p.o. N-Acetyl-DL-Leucine 100 mg/kg
[25] = plasma, after oral N-Acetyl-L-Leucine, nominal dose 100 mg/kg, listed as L-enantiomer, 100 mg/kg

SMILES: CC(=O)N[C@H](CC(C)C)C(=O)O [N-Acetyl-D-Leucine, N-acetyl-D-leucine]
- concentration in plasma [1, 5]: 391 ng/mL and 336 ng/mL
- concentration in plasma [1, 6]: 463 ng/mL and 388 ng/mL
- concentration in plasma [1, 7]: 116 ng/mL and 144 ng/mL and 248 ng/mL
- concentration in plasma [1, 8]: <LoQ and 45.6 ng/ml
- concentration in plasma [1, 9]: <LoQ
- concentration in plasma [1, 10]: <LoQ and 21.4 ng/ml
- concentration in plasma [1, 11]: 15.0 ng/ml and <LoQ
- concentration in plasma [1, 12]: <LoQ
- concentration in plasma [1, 13]: <LoQ
- concentration in plasma [1, 14]: <LoQ
- actual dose proportionality for AUC ([1]; male, BALB/c, mouse, in vivo): 101 fold
- actual dose proportionality for Cmax ([1]; male, BALB/c, mouse, in vivo): 197 fold
- Clast [1, 15]: 247 ng/mL
- Cmax [1, 15]: 86100 ng/mL
- Tmax [1, 15]: < 15 min
- half-life [1, 15]: 18.6 min
- k el [1, 15]: 0.000611 s⁻¹
- ke [1, 15]: 2.2
- concentration at 0.15 h ([1]; male, BALB/c, mouse, plasma, oral, 100 mg/kg, concentration in plasma, 0.15 h after p.o. N-Acetyl-L-Leucine 100 mg/kg, individual mice): 582 ng/mL
- concentration at 0.3 h [1, 16]: 392 ng/mL
- concentration at 2 h ([1]; male, BALB/c, mouse, plasma, oral, 100 mg/kg, concentration in plasma, 2.00 h after p.o. N-Acetyl-L-Leucine 100 mg/kg, individual mice): 33.4 ng/mL
- concentration at 6 h [1, 17]: 23.3 ng/mL
- concentration at 8 h ([1]; male, BALB/c, mouse, plasma, oral, 100 mg/kg, concentration in plasma, 8.00 h after p.o. N-Acetyl-L-Leucine 100 mg/kg, individual mice): 17.3 ng/mL
- Cmax [1, 18]: 436 ng/mL
- Tmax [1, 18]: < 15 min
- half-life [1, 18]: 15 min
- k el [1, 18]: 0.000472 s⁻¹
- AUC0-last [1, 19]: 573 h x ng/mL
- ke [1, 19]: 1.7
- Clast [1, 20]: 16.2 ng/mL
- Tlast [1, 20]: 8.00 h
- Clast [1, 21]: 16 ng/mL
- Tlast [1, 21]: 8 h
- concentration in muscle [2, 22]: 4370 ng/mL and 3590 ng/mL
- concentration in muscle ([2]; 0.30 h after p.o. N-Acetyl-L-Leucine 100 mg/kg): 1110 ng/mL and 1520 ng/mL
- concentration in muscle [2, 23]: 335 ng/mL and 396 ng/mL and 829 ng/mL
- concentration in muscle ([2]; 2.00 h after p.o. N-Acetyl-L-Leucine 100 mg/kg): 119 ng/mL and 109 ng/mL
- concentration at 0.3 h [2, 24]: 2860 ng/mL
- concentration at 0.3 h ([2]; male, BALB/c, mouse, skeletal muscle, oral, 100 mg/kg, 0.30 h after p.o. N-Acetyl-L-Leucine 100 mg/kg): 1090 ng/mL
- concentration at 2 h ([2]; male, BALB/c, mouse, skeletal muscle, oral, 100 mg/kg, 2.00 h after p.o. N-Acetyl-L-Leucine 100 mg/kg): 112 ng/mL
- concentration in brain ([3]; 0.30 h after p.o. N-Acetyl-DL-Leucine 100 mg/kg, individual mice): 357 ng/mL and 491 ng/mL and 888 ng/mL
- concentration in brain ([3]; 2.00 h after p.o. N-Acetyl-DL-Leucine 100 mg/kg, individual mice): <LoQ
- concentration at 2 h ([3]; male, BALB/c, mouse, brain, oral, 100 mg/kg, 2.00 h after p.o. N-Acetyl-DL-Leucine 100 mg/kg, individual mice): 117 ng/mL

SMILES: CC(=O)N[C@@H](CC(C)C)C(=O)O [N-Acetyl-L-Leucine, N-acetyl-L-leucine]
- concentration in plasma [1, 5]: 9090 ng/mL and 12400 ng/mL and 28900 ng/mL
- concentration in plasma [1, 6]: 7520 ng/mL and 10500 ng/mL
- concentration in plasma [1, 7]: 1590 ng/mL and 4280 ng/mL and 5300 ng/mL
- concentration in plasma [1, 8]: 73 ng/mL and 663 ng/mL and 502 ng/mL
- concentration in plasma [1, 9]: 131 ng/mL and 139 ng/mL and 304 ng/mL
- concentration in plasma [1, 10]: <LoQ and 114 ng/ml
- concentration in plasma [1, 11]: <LoQ
- concentration in plasma [1, 12]: <LoQ
- concentration in plasma [1, 13]: <LoQ
- concentration in plasma [1, 14]: <LoQ
- actual dose proportionality for AUC ([1]; male, BALB/c, mouse, in vivo): 4.6 fold
- actual dose proportionality for Cmax ([1]; male, BALB/c, mouse, in vivo): 4.9 fold
- Clast [1, 15]: 623 ng/mL
- Cmax [1, 15]: 3410 ng/mL
- Tmax [1, 15]: < 15 min
- half-life [1, 15]: 24 min
- k el [1, 15]: 0.000778 s⁻¹
- ke [1, 15]: 2.8
- concentration at 0.3 h [1, 16]: 7510 ng/mL
- concentration at 6 h [1, 17]: 222 ng/mL
- Cmax [1, 18]: 16800 ng/mL
- Tmax [1, 18]: < 15 min
- half-life [1, 18]: 17.4 min
- k el [1, 18]: 0.000667 s⁻¹
- Clast [1, 19]: 168 ng/mL
- ke [1, 19]: 2.4
- AUC0-last [1, 20]: 11 400 h x ng/mL
- Tlast [1, 20]: 6.00 h
- AUC0-last [1, 25]: 11400 h x ng/mL
- Tlast [1, 25]: 6 h
- concentration in muscle [2, 22]: 605 ng/mL and 566 ng/mL
- concentration in muscle [2, 23]: 364 ng/mL and 154 ng/mL and 193 ng/mL
- concentration in muscle ([2]; 6.00 h after p.o. N-Acetyl-DL-Leucine 100 mg/kg): 159 ng/mL and 189 ng/mL
- concentration in muscle ([2]; 24.0 h after p.o. N-Acetyl-DL-Leucine 100 mg/kg): 195 ng/mL and 153 ng/mL
- concentration in muscle ([2]; 48.0 h after p.o. N-Acetyl-DL-Leucine 100 mg/kg): 102 ng/mL
- concentration at 0.3 h [2, 24]: 469 ng/mL
- concentration at 6 h ([2]; male, BALB/c, mouse, skeletal muscle, oral, 100 mg/kg, 6.00 h after p.o. N-Acetyl-DL-Leucine 100 mg/kg): 108 ng/mL
- concentration at 24 h ([2]; male, BALB/c, mouse, skeletal muscle, oral, 100 mg/kg, 24.0 h after p.o. N-Acetyl-DL-Leucine 100 mg/kg): 136 ng/mL
- concentration at 48 h ([2]; male, BALB/c, mouse, skeletal muscle, oral, 100 mg/kg, 48.0 h after p.o. N-Acetyl-DL-Leucine 100 mg/kg): 124 ng/mL
- detection in brain ([3]; following oral dosing with the racemate, Fig 6B): not detectable at any time point

SMILES: CC(=O)NC(CC(C)C)C(=O)O (racemic) [N-Acetyl-DL-Leucine, N-acetyl-DL-leucine]
- elimination half-life [4]: 60 to 108 min
